Tests used:
[1] = test system: female Culex pipiens pallens; experiment: Efficacy of pesticide incense coils on mosquito (GB13917.4-92, airtight cask); format: in vivo; conditions: for KT50: pesticide incense coil, 0.04 w/w % active ingredient, ignited and removed after 1 min, 20 female mosquitoes; for relative efficacy compared with dimefluthrin: incense coil 0.04 w/w %, from KT50 of table 1
Description: To a mixture of corn starch, carbon powder and wood flour (1:5:4, 99.96 parts by weight) was added water (120 parts by weight) and the resulting mixture was kneaded, and then dried to give a pesticide incense coil substrate (diameter: 12.0 cm; thickness: 4 mm; one pair of substrates' weight: 40 g).
On the other hand, a 0.4 w/v % solution of compound 1 in kerosene was prepared.
The above solution (4 ml) was uniformly sprayed on the incense coil substrate with a micro-syringe, and then kept for airing at room temperature for 3 hours to get of a pesticide incense coil I containing compound 1 according to the present invention (0.04 w/w %).
Similarly, a 0.4 w/v % solution of compound 2 in kerosene was prepared and a pesticide incense coil II containing compound 2 (0.04 w/w %) was be obtained.
A 0.4 w/v % solution of compound 3 in kerosene was prepared and a pesticide incense coil III containing compound 3 (0.04 w/w %) was obtained;
A 0.4 w/v % solution of compound 4 in kerosene was prepared and a pesticide incense coil IV containing compound 4 (0.04 w/w %) was obtained;
A 0.4 w/v % solution of compound 6 in kerosene was prepared and a pesticide incense coil V containing compound 6 (0.04 w/w %) was obtained;
A 0.4 w/v % solution of dimefluthrin in kerosene was prepared and a pesticide incense coil VI containing dimefluthrin (0.04 w/w %) was obtained.
The efficacy of pesticide coils I-Vi on mosquito were tested and compared according to GB13917.4-92). In particular, the test pests are female Culex pipiens pallens (2-3 days old, fasten). Firstly, 20 test mosquitoes were captured and put into airtight cask testing device with a mosquito-sucking tube, a section of pesticide incense coil to be tested was put on shelves, then ignited and removed after 1 min.

sanitary pests = experiment: Efficacy comparison of stereoisomers in controlling sanitary pests (experiments not detailed); conditions: for efficacy of isomer relative to other isomers: qualitative statement from applicant's study
Mosquito [2] = experiment: Efficacy of aerosol pesticide on mosquito (GB13917.2-92); format: in vivo; conditions: 1 g sprayed
Description: (§1) Compound 1 (0.3 parts by weight) and kerosene (59.7 parts by weight) are mixed under heating to prepare a pesticide. The pesticide was placed in aerosol cans with a valve and then a mixture of propane and butane (40.0 parts by weight) was injected into tank through the valve at positive pressure to get an aerosol pesticide, which contains […] compound 1.
(§2) The efficacy of the aerosol pesticide on Mosquitoes, flies and blattella germanicas were tested according to GB13917.2-92. In particular, the test pests were placed into a tank. After all test pests restored normal activities, 1 g aerosol pesticide from aerosol cans was sprayed into the tank. Take the barrier plate away to make pests exposed to the aerosol pesticide and the number of killed pests was recorded at regular intervals, then all test pests were transferred to a clean cage after 20 mins, the number of dead pests was counted after 24 hours and the mortality of blattella germanicas at 72 h was determined.

Fly = experiment: Efficacy of aerosol pesticide on fly (GB13917.2-92); format: in vivo; conditions: 1 g sprayed
Description: as §1, §2

Blattella germanica = experiment: Efficacy of aerosol pesticide on blattella germanica (GB13917.2-92); format: in vivo; conditions: 1 g sprayed
Description: as §1, §2

Mosquito [3] = experiment: Volatile agent on filter paper hung on the door of a room, mosquito invasion; format: in vivo; conditions: 1 mg on filter paper 20 cm×50 cm, volatilised at room temperature, hung on edge of door
Description: Compound 6 (2,3,5,6-tetrafluoro-4-methoxymethylbenzyl-1R, trans-(Z)-3-(3,3,3-trifluoro-1-prop ylene)-2,2-dimethylcyclopropane carboxylate, 1 mg) was dissolved in acetone (20 ml) to obtain a solution. The resulting solution was distributed on a filter paper (20 cm×50 cm) and air-dried to remove the acetone to obtain a volatile agent.

[4] = aerosol pesticide from compound 1 (0.3 parts by weight)
[5] = aerosol pesticide, 20 min exposure, 24 h

With `COCc1c(F)c(F)c(COC(=O)C2C(C=C(C)C)C2(C)C)c(F)c1F` (stereo not drawn) [Dimefluthrin, dimefluthrin, reference compound] the KT50 [1] was 7.6 min.
Work on `COCc1c(F)c(F)c(COC(=O)[C@H]2C(/C=C/C(F)(F)F)C2(C)C)c(F)c1F` (stereo partly drawn) [Compound 4, 2,3,5,6-tetrafluoro-4-methoxymethylbenzyl-1S-(E)-3-(3,3,3-trifluoro-1-propenyl)-2,2-dimethylcyclopropane carboxylate] yielded a KT50 [1] of 8.2 min.
For `COCc1c(F)c(F)c(COC(=O)[C@@H]2C(/C=C\C(F)(F)F)C2(C)C)c(F)c1F` (stereo partly drawn) [Compound 1, 2,3,5,6-tetrafluoro-4-methoxymethylbenzyl-1R-(Z)-3-(3,3,3-trifluoro-1-propenyl)-2,2-dimethylcyclopropane carboxylate], the “cross resistance compared to traditional pyrethroid products such as allethrin” value (sanitary pests; control of sanitary pests) was “doesn't have cross resistance”, the “efficacy of isomer relative to other isomers” value (sanitary pests) was “highly active isomer” and the “KT50 (mosquito/fly/cockroach)” value (Mosquito [2]; [4]) was 4.8 min. The “Mortality during 24 h” value (Mosquito [2]; [5]) was 100%, the “relative efficacy compared with dimefluthrin” value [1] was “more than twice that of dimefluthrin” and the KT50 [1] was 3.2 min. The “KT50 (mosquito/fly/cockroach)” value (Fly; [4]) was 4.3 min, the “Mortality during 24 h” value (Fly; [5]) was 100% and the “KT50 (mosquito/fly/cockroach)” value (Blattella germanica; [4]) was 6.2 min. For the same molecule, the “Mortality (72 h)” value (Blattella germanica; aerosol pesticide, 20 min exposure, 72 h) was 90%.
`COCc1c(F)c(F)c(COC(=O)[C@@H]2C(/C=C/C(F)(F)F)C2(C)C)c(F)c1F` (stereo partly drawn) [Compound 2, 2,3,5,6-tetrafluoro-4-methoxymethylbenzyl-1R-(E)-3-(3,3,3-trifluoro-1-propenyl)-2,2-dimethylcyclopropane carboxylate] was tested, and the KT50 [1] was 5.2 min.
`COCc1c(F)c(F)c(COC(=O)[C@H]2C(/C=C\C(F)(F)F)C2(C)C)c(F)c1F` (stereo partly drawn) [Compound 3, 2,3,5,6-tetrafluoro-4-methoxymethylbenzyl-1S-(Z)-3-(3,3,3-trifluoro-1-propenyl)-2,2-dimethyl cyclopropane carboxylate] showed a KT50 [1] of 5.1 min.
`COCc1c(F)c(F)c(COC(=O)[C@@H]2[C@@H](/C=C\C(F)(F)F)C2(C)C)c(F)c1F` (relative stereo) [Compound 6, 2,3,5,6-tetrafluoro-4-methoxymethylbenzyl-1R, trans-(Z)-3-(3,3,3-trifluoro-1-propenyl)-2,2-dimethyl cyclopropane carboxylate] was tested, and the “efficacy of isomer relative to other isomers” value (sanitary pests) was “slightly better than the cis isomer”, the “relative efficacy compared with dimefluthrin” value [1] was “more than twice that of dimefluthrin” and the KT50 [1] was 3.1 min. For the same molecule, the “mosquito invasion of a room” value (Mosquito [3]) was “None mosquito invaded”.

From patent US20120076846A1, “Pyrethroid Compound, Preparation Process and Use Thereof” (priority 2009, published 2012)
